Data taken from patent US5298517A, “Angiotensin II receptor blocking agents” (American Cyanamid Company, priority 1993, dated 1994).

Target: T1, Angiotensin II Receptor (Bos taurus, UniProt P25104)
T1 construct: The brownish tissue forming the adrenal cortex is scraped off and finely minced with scissors before homogenization; tissue local slaughter house (Maxwell-Cphen); host or cells: beef adrenal cortex, microsomal membranes
T1 sequence (P25104 1-359): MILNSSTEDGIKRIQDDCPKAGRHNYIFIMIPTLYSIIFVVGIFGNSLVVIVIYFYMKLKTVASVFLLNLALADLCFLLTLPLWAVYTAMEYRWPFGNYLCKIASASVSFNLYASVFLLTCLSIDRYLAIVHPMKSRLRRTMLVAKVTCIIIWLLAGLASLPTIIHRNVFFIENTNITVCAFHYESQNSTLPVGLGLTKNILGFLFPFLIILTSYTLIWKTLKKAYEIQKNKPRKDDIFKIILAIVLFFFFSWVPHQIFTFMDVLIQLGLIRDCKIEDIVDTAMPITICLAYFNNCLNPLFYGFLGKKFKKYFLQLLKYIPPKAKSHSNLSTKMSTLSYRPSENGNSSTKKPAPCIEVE
Assay: Angiotensin II receptor binding, displacement of [^125 I](Sar^1,Ile^8)AngII from beef adrenal cortex membranes
Conditions: pH 7.4, 60 min, room temperature, triplicate
Description: Beef adrenals are obtained from a local slaughter house (Maxwell-Cphen). [^125 I](Sar^1,Ile^8)AngII, S.A. 2200 Ci/mmole, is purchased from Dupont (NEN®, Boston, Mass.). All unlabeled AngII analogs, Dimethylsulfoxide (DMSO), nucleotides, bovine serum albumin (BSA) are purchased from Sigma Chemical Co., St. Louis, Mo. U.S.A.
Approximately sixteen (16) to twenty (20) beef adrenal glands are processed as follows: fresh adrenal glands received on crushed ice are cleaned of fatty tissues and the tough membranes encapsulating the glands are removed and discarded. The brownish tissue forming the adrenal cortex is scraped off and finely minced with scissors before homogenization. Care is taken to avoid contamination with medullary tissue during dissection. The scraped cortices are suspended in twenty volumes of an ice-cold buffer medium consisting of 10 mM Tris.HCl (pH 7.4 at 22° C.) and containing 1.0 mM EDTA and 0.2 M sucrose. Unless otherwise indicated, all subsequent operations are done at 4° C. […] This P2 pellet is discarded and the liquid phase is carefully decanted off in clean centrifuge tubes and recentrifuged at high speed ([…]) […] the protein content of the preparation is determined by the Lowry's method (Lowry, O. H., Rosebrough, N. F., Farr, A. L. and Randall, R. J., Protein measurement with Folin phenol reagent. J. Biol. Chem., […], 265-275, 1951). […]

Question: Which IC50 does the source give for `CCCCc1nc(Cl)c([C@@]2(C)C[C@@H]3CCCN3O2)n1Cc1ccc(-c2ccccc2-c2nn[nH]n2)cc1` (racemic) [Example 8, Cis-(+/-)-2-[2-Butyl-4-chloro-1-[[2'-(1H-tetrazol-5-yl)[1,1'-biphenyl]-4-yl]methyl]-1H-imidazol-5-yl]hexahydro-2-methyl-pyrrolo[1,2-b]isoxazole] here?
Answer: 34 nM
